From patent US9822118B2, “Bicyclic heteroaryl urea, thiourea, guanidine and cyanoguanidine compounds as TrkA kinase inhibitors” (Array BioPharma Inc., priority 2012, dated 2017)

Molecular target: T1, recombinant human TrkA (Homo sapiens, UniProt P04629)
T1 construct: 6HIS tagged cytoplasmic domain from Invitrogen, Catalog No. PV3144; purchased Invitrogen PV3144
Assay: TrkA LanthaScreen Eu Kinase Binding Assay
Settings: averaged IC50; TR-FRET binding assay, 60 min at 22° C.; read-out: TrkA Enzyme IC50
Description: TrkA binding activity was determined in a TrkA LanthaScreen™ Eu Kinase Binding Assay. 5 nM His-tagged recombinant human TrkA (6HIS tagged cytoplasmic domain from Invitrogen, Catalog No. PV3144) was incubated with 4 nM Alexa-Fluor® Tracer 236 (Invitrogen Cat. No. PV5592), 2 nM biotinylated anti-His (Invitrogen Cat. No. PV6090), and 2 nM europium-labeled Streptavidin (Invitrogen Cat. No. PV5899), in buffer (25 mM MOPS, pH 7.5, 5 mM MgCl2, 0.005% Triton X-100). Three fold serial dilutions of compounds of the invention in DMSO were added to a final percentage of 2% DMSO. After 60-minute incubation at 22° C., the reaction was measured using the EnVision multimode plate reader (PerkinElmer) via TR-FRET dual wavelength detection at […]. The percent of control was calculated using a ratiometric emission factor. The IC50 values were determined by fitting a four parameter model to the percent of control data.
Table A provides averaged IC50 values for compounds of the invention when tested in the assay of Example A, where A represents an averaged IC50 value <100 nM; and B represents an averaged IC50 value from 100 to 1,000 nM.

T1 sequence (P04629 440-796 limits assumed): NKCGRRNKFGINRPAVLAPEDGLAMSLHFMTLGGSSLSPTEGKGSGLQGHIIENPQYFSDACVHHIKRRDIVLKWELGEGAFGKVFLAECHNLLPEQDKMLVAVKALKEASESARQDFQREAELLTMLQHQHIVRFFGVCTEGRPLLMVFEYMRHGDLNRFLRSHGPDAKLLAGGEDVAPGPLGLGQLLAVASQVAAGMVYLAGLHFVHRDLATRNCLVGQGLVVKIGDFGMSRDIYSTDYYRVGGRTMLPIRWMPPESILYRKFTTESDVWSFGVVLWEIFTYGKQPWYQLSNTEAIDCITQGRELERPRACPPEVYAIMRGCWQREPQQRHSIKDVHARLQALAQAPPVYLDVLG

Structure (SMILES)	IC50 [nM]
COc1nn(-c2ccccc2)c(NC(=O)Nc2c(-c3ccccc3)nc3c(C)cccn23)c1C [Example 21, 1-(3-methoxy-4-methyl-1-phenyl-1H-pyrazol-5-yl)-3-(8-methyl-2-phenylimidazo[1,2-a]pyridin-3-yl)urea]	< 100
CCOc1nn(-c2ccccc2)c(NC(=O)Nc2c(-c3ccccc3)nc3c(C)nccn23)c1C [Example 2, 1-(3-ethoxy-4-methyl-1-phenyl-1H-pyrazol-5-yl)-3-(8-methyl-2-phenylimidazo[1,2-a]pyrazin-3-yl)urea]	< 100
Cc1cccn2c(NC(=O)Nc3c4c(nn3-c3ccccc3)CCC4)c(-c3ccccc3)nc12 [Example 12, 1-(8-methyl-2-phenylimidazo[1,2-a]pyridin-3-yl)-3-(2-phenyl-2,4,5,6-tetrahydrocyclopenta[c]pyrazol-3-yl)urea]	< 100
Cc1ccc(NC(=O)Nc2c(-c3ccccc3)nc3c(C)nccn23)c(-c2ccccc2)n1 [Example 9, 1-(8-methyl-2-phenylimidazo[1,2-a]pyrazin-3-yl)-3-(6-methyl-2-phenylpyridin-3-yl)urea]	100 to 1000
Cc1cccn2c(NC(=O)Nc3c4c(nn3-c3ccccc3)CCCC4)c(-c3ccccc3)nc12 [Example 19, 1-(8-methyl-2-phenylimidazo[1,2-a]pyridin-3-yl)-3-(2-phenyl-4,5,6,7-tetrahydro-2H-indazol-3-yl)urea]	< 100
Cc1cccn2c(NC(=O)Nc3c4c(nn3-c3ccccc3)CS(=O)(=O)C4)c(-c3ccccc3)nc12 [Example 17, 1-(5,5-dioxido-2-phenyl-4,6-dihydro-2H-thieno[3,4-c]pyrazol-3-yl)-3-(8-methyl-2-phenylimidazo[1,2-a]pyridin-3-yl)urea]	< 100
O=C(Nc1c2c(nn1-c1ccccc1)CCC2)Nc1c(-c2ccccc2)nc2c(C(F)(F)F)cccn12 [Example 13, 1-(2-phenyl-2,4,5,6-tetrahydrocyclopenta[c]pyrazol-3-yl)-3-(2-phenyl-8-(trifluoromethyl)imidazo[1,2-a]pyridin-3-yl)urea]	< 100
Cc1c(OC[C@H](O)CO)nn(-c2ccccc2)c1NC(=O)Nc1c(-c2ccccc2)nc2c(C)cccn12 [Example 10, (R)-1-(3-(2,3-dihydroxypropoxy)-4-methyl-1-phenyl-1H-pyrazol-5-yl)-3-(8-methyl-2-phenylimidazo[1,2-a]pyridin-3-yl)urea]	100 to 1000
O=C(Nc1c2c(nn1-c1ccccc1)CS(=O)(=O)C2)Nc1c(-c2ccccc2)nc2c(C(F)(F)F)cccn12 [Example 18, 1-(5,5-dioxido-2-phenyl-4,6-dihydro-2H-thieno[3,4-c]pyrazol-3-yl)-3-(2-phenyl-8-(trifluoromethyl)imidazo[1,2-a]pyridin-3-yl)urea]	< 100
Cc1c(OC[C@H](C)O)nn(-c2ccccc2)c1NC(=O)Nc1c(-c2ccccc2)nc2c(C)cccn12 [Example 11, (S)-1-(3-(2-hydroxypropoxy)-4-methyl-1-phenyl-1H-pyrazol-5-yl)-3-(8-methyl-2-phenylimidazo[1,2-a]pyridin-3-yl)urea]	100 to 1000
Cc1nn(-c2ccccc2)c(NC(=O)Nc2c(-c3ccccc3)nc3c(C)nccn23)c1C [Example 8, 1-(3,4-dimethyl-1-phenyl-1H-pyrazol-5-yl)-3-(8-methyl-2-phenylimidazo[1,2-a]pyrazin-3-yl)urea]	< 100
COc1nn(-c2ccccc2)c(NC(=O)Nc2c(-c3ccccc3)nc3c(C(F)(F)F)cccn23)c1C [Example 22, 1-(3-methoxy-4-methyl-1-phenyl-1H-pyrazol-5-yl)-3-(2-phenyl-8-(trifluoromethyl)imidazo[1,2-a]pyridin-3-yl)urea]	< 100
CCOc1nn(-c2ccccc2)c(NC(=O)Nc2c(-c3ccccc3)nc3c(Cl)cccn23)c1C [Example 4, 1-(8-chloro-2-phenylimidazo[1,2-a]pyridin-3-yl)-3-(3-ethoxy-4-methyl-1-phenyl-1H-pyrazol-5-yl)urea]	< 100
CCOc1nn(-c2ccccc2)c(NC(=O)Nc2c(-c3ccccc3)nc3c(C(F)(F)F)cccn23)c1C [Example 3, 1-(3-ethoxy-4-methyl-1-phenyl-1H-pyrazol-5-yl)-3-(2-phenyl-8-(trifluoromethyl)imidazo[1,2-a]pyridin-3-yl)urea]	< 100
CCOc1nn(-c2ccccc2)c(NC(=O)Nc2c(-c3ccc(OC)nc3)nc3c(C)cccn23)c1C [Example 16, 1-(3-ethoxy-4-methyl-1-phenyl-1H-pyrazol-5-yl)-3-(2-(6-methoxypyridin-3-yl)-8-methylimidazo[1,2-a]pyridin-3-yl)urea]	100 to 1000
COc1ccc(-c2nc3c(C)cccn3c2NC(=O)Nc2c3c(nn2-c2ccccc2)CS(=O)(=O)C3)cc1 [Example 24, 1-(5,5-dioxido-2-phenyl-4,6-dihydro-2H-thieno[3,4-c]pyrazol-3-yl)-3-(2-(4-methoxyphenyl)-8-methylimidazo[1,2-a]pyridin-3-yl)urea]	100 to 1000
CCOc1nn(-c2ccccc2)c(NC(=O)Nc2c(-c3ccccc3)nc3ccccn23)c1C [Example 5, 1-(3-ethoxy-4-methyl-1-phenyl-1H-pyrazol-5-yl)-3-(2-phenylimidazo[1,2-a]pyridin-3-yl)urea]	100 to 1000
Cc1nccn2c(NC(=O)Nc3c4c(nn3-c3ccccc3)CCC4)c(-c3ccccc3)nc12 [Example 1, 1-(8-methyl-2-phenylimidazo[1,2-a]pyrazin-3-yl)-3-(2-phenyl-2,4,5,6-tetrahydrocyclopenta[c]pyrazol-3-yl)urea]	< 100

More lines, now with the values ahead:

IC50 [nM]	Structure (SMILES)
100 to 1000	O=C(Nc1c2c(nn1-c1ccccc1)CCC2)Nc1c2ccccc2nn1-c1ccccc1 [Example 37, 1-(2-phenyl-2,4,5,6-tetrahydrocyclopenta[c]pyrazol-3-yl)-3-(2-phenyl-2H-indazol-3-yl)urea]
100 to 1000	CCOc1nn(-c2ccccc2)c(NC(=O)Nc2c(-c3ccccc3)nn3ccccc23)c1C [Example 39, 1-(3-ethoxy-4-methyl-1-phenyl-1H-pyrazol-5-yl)-3-(2-phenylpyrazolo[1,5-a]pyridin-3-yl)urea]
< 100	Cc1c(OC[C@@H](O)CO)nn(-c2ccccc2)c1NC(=O)Nc1c(-c2ccccc2)nc2c(C(F)(F)F)cccn12 [Example 29, (S)-1-(3-(2,3-dihydroxypropoxy)-4-methyl-1-phenyl-1H-pyrazol-5-yl)-3-(2-phenyl-8-(trifluoromethyl)imidazo[1,2-a]pyridin-3-yl)urea]
< 100	O=C(Nc1c(-c2ccccc2)nn2ccccc12)Nc1c2c(nn1-c1ccccc1)CCC2 [Example 38, 1-(2-phenyl-2,4,5,6-tetrahydrocyclopenta[c]pyrazol-3-yl)-3-(2-phenylpyrazolopyridin-3-yl)urea]
< 100	CCOc1nn(-c2ccccc2)c(NC(=O)Nc2c(-c3ccc(F)cc3)nc3c(C(F)(F)F)cccn23)c1C [Example 33, 1-(3-ethoxy-4-methyl-1-phenyl-1H-pyrazol-5-yl)-3-(2-(4-fluorophenyl)-8-(trifluoromethyl)imidazo[1,2-a]pyridin-3-yl)urea]
100 to 1000	COCc1nn(-c2ccccc2)c(NC(=O)Nc2c(-c3ccccc3)nc3c(C(F)(F)F)cccn23)c1C [Example 31, 1-(3-(methoxymethyl)-4-methyl-1-phenyl-1H-pyrazol-5-yl)-3-(2-phenyl-8-(trifluoromethyl)imidazo[1,2-a]pyridin-3-yl)urea]
< 100	Cc1c(OC[C@@H](C)O)nn(-c2ccccc2)c1NC(=O)Nc1c(-c2ccccc2)nc2c(C(F)(F)F)cccn12 [Example 27, (R)-1-(3-(2-hydroxypropoxy)-4-methyl-1-phenyl-1H-pyrazol-5-yl)-3-(2-phenyl-8-(trifluoromethyl)imidazo[1,2-a]pyridin-3-yl)urea]
< 100	Cc1c(OCC(C)(C)O)nn(-c2ccccc2)c1NC(=O)Nc1c(-c2ccccc2)nc2c(C(F)(F)F)cccn12 [Example 26, 1-(3-(2-hydroxy-2-methylpropoxy)-4-methyl-1-phenyl-1H-pyrazol-5-yl)-3-(2-phenyl-8-(trifluoromethyl)imidazo[1,2-a]pyridin-3-yl)urea]
100 to 1000	CCOc1nn(-c2ccccc2)c(NC(=O)Nc2c(-c3cccc(F)c3)nc3c(C(F)(F)F)cccn23)c1C [Example 32, 1-(3-ethoxy-4-methyl-1-phenyl-1H-pyrazol-5-yl)-3-(2-(3-fluorophenyl)-8-(trifluoromethyl)imidazo[1,2-a]pyridin-3-yl)urea]
< 100	COC[C@H](O)COc1nn(-c2ccccc2)c(NC(=O)Nc2c(-c3ccccc3)nc3c(C(F)(F)F)cccn23)c1C [Example 36, (S)-1-(3-(2-hydroxy-3-methoxypropoxy)-4-methyl-1-phenyl-1H-pyrazol-5-yl)-3-(2-phenyl-8-(trifluoromethyl)imidazo[1,2-a]pyridin-3-yl)urea]
100 to 1000	COC[C@@H](O)COc1nn(-c2ccccc2)c(NC(=O)Nc2c(-c3ccccc3)nc3c(C(F)(F)F)cccn23)c1C [Example 35, (R)-1-(3-(2-hydroxy-3-methoxypropoxy)-4-methyl-1-phenyl-1H-pyrazol-5-yl)-3-(2-phenyl-8-(trifluoromethyl)imidazo[1,2-a]pyridin-3-yl)urea]
< 100	Cc1c(-c2cnn(C)c2)nn(-c2ccccc2)c1NC(=O)Nc1c(-c2ccccc2)nc2c(C(F)(F)F)cccn12 [Example 30, 1-(1′,4-dimethyl-1-phenyl-1H,1′H-[3,4′-bipyrazol]-5-yl)-3-(2-phenyl-8-(trifluoromethyl)imidazo[1,2-a]pyridin-3-yl)urea]
